# Data from PubChem BioAssay AID1963974 (Molecular Pharmacology Branch, DTP, NCI, 2024).
# Tested on: 648629-189-R-J1-PDC spheroids with HUVEC/MSC, viability
# Experiment: Anticancer human tumor 648629-189-R-J1-PDC patient-derived bladder carcinoma cell line growth inhibition [PI3K]
# Details: for IC50: curve of first compound; for viability, T/C: stronger effect = lower value
# From the text: Combinatorial screen of targeted agents with the PI3K inhibitors inavolisib, alpelisib, duvelisib, and copanlisib in multi-cell type tumor spheroids
# A high-throughput screen of multi-cell type tumor spheroids was designed to identify active combinations of targeted small molecules and PI3K pathway inhibitors. Complex spheroids include a stromal component modeled by human endothelial cells (HUVEC) and fibroblasts modeled by human mesenchymal stem cells (MSCs). The concentration ranges selected for each drug and investigational agent were based upon clinically achievable concentrations if the clinical Cmax of the agent was known.
# Compounds. The drugs and investigational agents: inavolisib (NSC800729), alpelisib (NSC765974), duvelisib (NSC772469), copanlisib (NSC816437), ipatasertib (NSC767898), afuresertib (NSC778305), talazoparib (NSC767125), sapanisertib (NSC764658), selumetinib (NSC741078), tovorafenib (DAY101, NSC766906), vemurafenib (NSC761431), ravoxertinib (NSC781343), sotorasib (NSC818433), MRTX1133 (NSC 836407), abemaciclib (NSC 768073), palbociclib (NSC758247), venetoclax (NSC 766270), SY5609 (NSC837396), enzalutamide (NSC755605), and darolutamide (NSC825331), were obtained from the National Cancer Institute (NCI) Developmental Therapeutics Program Chemical Repository. The FDA-approved anticancer drug set is available from the NCI Developmental Therapeutics Program. […] The stock solutions were prepared in dimethyl sulfoxide (DMSO, Sigma-Aldrich, St. Louis, MO, cat. D2650) at 800-fold the tested concentration and stored at -70 degrees C prior to their use. All drugs and investigational agents were tested over a range starting from a high concentration at or near the clinical Cmax and decreasing in half-log increments. If the clinical Cmax for an agent had not been determined, the highest concentration tested was 10 microM.
# Cell Culture. All cells were maintained in an incubator at 37 degrees C and 5% CO2 with 95% humidity. The PDC lines were cultured according to standard operating procedures established by the NCI PDMR (https://pdmr.cancer.gov/sops/default.htm). All PDCs were thawed and cultured in Matrigel-coated flasks prepared with a working solution of 1X Ham's F-12 nutrient mix, without supplementation (Invitrogen, Waltham, MA, cat. 11765054), 100 U/mL penicillin-streptomycin (Invitrogen, cat. 15140122), and 2.5% Matrigel (Corning Inc., Corning, NY, cat. 354248) for the first three passages. The 354836-022-R-J1-PDC, 475296-252-R-J1-PDC, and 997726-040-R-J2-PDC lines were cultured in 6A media, which includes advanced DMEM/F-12 (Thermo Fisher Scientific, cat. 12634028), 10 mM HEPES (Thermo Fisher Scientific, cat. 15630080), 1X GlutaMAX supplement (Thermo Fisher Scientific, cat. 35050061), 0.1 mg/mL primocin (InvivoGen, San Diego, CA, cat. ant-pm-2), 10% defined fetal bovine serum, heat inactivated (HyClone Laboratories Inc., Logan, UT, cat. SH30070.03HI), 50% L-WRN conditioned media (ATCC, cat. CRL-3276), 1.25 mM N-Acetyl-L-cysteine (Sigma-Aldrich, cat. A9165), 10 mM nicotinamide (Sigma-Aldrich, cat. N0636), 1X B-27 supplement (Thermo Fisher Scientific, cat. 17504044), 1X N-2 supplement (Thermo Fisher Scientific, cat. 17502048), and 10 microM Y-27632 dihydrochloride (Tocris Bioscience, Bristol, United Kingdom, cat. 1254). The 624824-186-R-J2-PDC line was cultured in 6C/Colon 1B media, which includes all 6A media components plus 50 ng/mL human EGF recombinant protein (Thermo Fisher Scientific, cat. PHG0311). […]
# 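Note: spheroids exposed to agents for seven days before reading.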
# 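Throughout, for viability, T/C: percent of vehicle control luminescence where 100% = DMSO treated spheroids.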
smiles,measurement,setting,value
CC(=O)c1c(C)c2cnc(Nc3ccc(N4CCNCC4)cn3)nc2n(C2CCCC2)c1=O + CC(Nc1ccc2c(c1)OCCn1cc(N3C(=O)OCC3C(F)F)nc1-2)C(N)=O,IC50,second compound 0.00316 µM,> 100 nM
same,IC50,second compound 0.01 µM,> 100 nM
same,IC50,second compound 0.0316 µM,> 100 nM
same,IC50,second compound 0.1 µM,> 100 nM
same,IC50,second compound 0.316 µM,> 100 nM
same,IC50,second compound 1 µM,> 100 nM
same,"viability, T/C","second compound 0.00316 µM, first compound 0.000316 µM",102%
same,"viability, T/C","second compound 0.00316 µM, first compound 0.001 µM",103%
same,"viability, T/C","second compound 0.00316 µM, first compound 0.00316 µM",105%
same,"viability, T/C","second compound 0.00316 µM, first compound 0.01 µM",95.5%
same,"viability, T/C","second compound 0.00316 µM, first compound 0.0316 µM",108%
same,"viability, T/C","second compound 0.00316 µM, first compound 0.1 µM",112%
same,"viability, T/C","second compound 0.01 µM, first compound 0.000316 µM",101%
same,"viability, T/C","second compound 0.01 µM, first compound 0.001 µM",103%
same,"viability, T/C","second compound 0.01 µM, first compound 0.00316 µM",88%
same,"viability, T/C","second compound 0.01 µM, first compound 0.01 µM",99.4%
same,"viability, T/C","second compound 0.01 µM, first compound 0.0316 µM",98.9%
same,"viability, T/C","second compound 0.01 µM, first compound 0.1 µM",104%
same,"viability, T/C","second compound 0.0316 µM, first compound 0.000316 µM",88.5%
same,"viability, T/C","second compound 0.0316 µM, first compound 0.001 µM",105%
same,"viability, T/C","second compound 0.0316 µM, first compound 0.00316 µM",95.9%
same,"viability, T/C","second compound 0.0316 µM, first compound 0.01 µM",99.9%
same,"viability, T/C","second compound 0.0316 µM, first compound 0.0316 µM",97.4%
same,"viability, T/C","second compound 0.0316 µM, first compound 0.1 µM",96.4%
same,"viability, T/C","second compound 0.1 µM, first compound 0.000316 µM",104%
same,"viability, T/C","second compound 0.1 µM, first compound 0.001 µM",92.1%
same,"viability, T/C","second compound 0.1 µM, first compound 0.00316 µM",82.8%
same,"viability, T/C","second compound 0.1 µM, first compound 0.01 µM",88.3%
same,"viability, T/C","second compound 0.1 µM, first compound 0.0316 µM",96.2%
same,"viability, T/C","second compound 0.1 µM, first compound 0.1 µM",102%
same,"viability, T/C","second compound 0.316 µM, first compound 0.000316 µM",81.5%
same,"viability, T/C","second compound 0.316 µM, first compound 0.001 µM",87.2%
same,"viability, T/C","second compound 0.316 µM, first compound 0.00316 µM",85%
same,"viability, T/C","second compound 0.316 µM, first compound 0.01 µM",82.4%
same,"viability, T/C","second compound 0.316 µM, first compound 0.0316 µM",76.4%
same,"viability, T/C","second compound 0.316 µM, first compound 0.1 µM",94.5%
same,"viability, T/C","second compound 1 µM, first compound 0.000316 µM",67%
same,"viability, T/C","second compound 1 µM, first compound 0.001 µM",65.7%
same,"viability, T/C","second compound 1 µM, first compound 0.00316 µM",78.4%
same,"viability, T/C","second compound 1 µM, first compound 0.01 µM",80%
same,"viability, T/C","second compound 1 µM, first compound 0.0316 µM",63.4%
same,"viability, T/C","second compound 1 µM, first compound 0.1 µM",71.2%
